# Tested on: B-16 melanoma cells
# Assay: Evaluation of melanin production-inhibitory effect (cell-whitening degree of cultured B-16 melanoma cells); for Melanin production-inhibitory effect (cell-whitening degree): key: ++: The whitening degree is higher than that observed for the positive control; +: The whitening degree is almost identical to that observed for the positive control; ±: The whitening degree is not higher than that observed for the positive control, but higher than that observed for the control; −: The whitening degree is almost identical to that observed for the control
# Format: cell-based
# Details: for Melanin production-inhibitory effect (cell-whitening degree): positive control 450 ppm vitamin C-magnesium phosphate; for melanogenesis-inhibitory function relative to that observed when 450 ppm of vitamin C-magnesium phosphate (standard) is added: from Table 1
# Procedure: In the present invention, the melanogenesis-inhibitory effect is evaluated and compared on the basis of the results of tests for examining the melanogenesis-inhibitory function in which B-16 melanoma cells are cultivated, as a primary evaluation. Moreover, a feed is, for instance, practically prepared and its effectiveness in the melanogenesis-inhibition is evaluated as a secondary evaluation. It has been confirmed that the pentacyclic triterpenes whose strong melanogenesis-inhibitory function is confirmed by the cell culture test as the primary evaluation also show an excellent effect in the secondary evaluation test. In addition, it has also been confirmed that there is a correlation between the results obtained in these two evaluation methods.
# If the culture system includes a melanogenesis-inhibitory substance during the proliferation thereof, the blackening of the cells is suppressed while the whitening thereof is relatively promoted. Accordingly, the melanogenesis-inhibitory function of the substance can be evaluated by comparing the degree of whitening observed for the substance with the degree of blackening observed for a control. The evaluated results of the melanogenesis-inhibitory effect obtained in this cell culture system clearly indicate that the pentacyclic triterpenes and/or physiologically acceptable salts thereof or derivatives thereof have quite strong melanogenesis-inhibitory effects. For instance, when comparing the effects thereof with that achieved by vitamin C-magnesium phosphate, the melanogenesis-inhibitory effect is about 100 to 200 times, for maslinic acid, about 100 to 200 times, for maslinic acid salts, about 10 to 100 times, for erythrodiol, about 30 to 120 times, for uvaol, about 30 to 120 times, for betulinic acid, about 10 to 100 times, for betulin, about 100 to 200 times, for ethyl maslinate, about 50 to 150 times, for acetylated maslinic acid, about 30 to 120 times, for triethylsilylated maslinic acid, about 50 to 150 times, for stearoyl derivative of ethyl maslinate, about 10 to 100 times, for acetylated erythrodiol, about 10 to 100 times, for acetylated uvaol, about 10 to 100 times, for ethyl betulinate, and about 5 to 50 times, for acetylated betulin, that observed for the vitamin C-magnesium phosphate.
# A culture medium was dispensed to wells of a 6-well plate (2 mL/well each), followed by inoculation of a desired amount of B-16 melanoma cells on each well, allowing the wells to stand at 37° C. and 5% CO2 to thus cultivate the cells. On the day subsequent thereto, a candidate sample (pentacyclic triterpenes) solution prepared was added to and mixed with the culture medium containing the cells and the cultivation was continued. The culture medium was replaced with fresh one on the 5th day from the initiation of the cultivation and the prepared sample solution was again added to the wells. On the next day, the culture medium was removed to recover the cells, followed by the washing of these cells with PBS (phosphate buffered physiological saline) and the subsequent evaluation of the cell-whitening degree. In this respect, the melanogenesis-inhibitory function was evaluated by comparing the cell-whitening degree thus obtained with that observed when using 450 ppm of vitamin C-magnesium phosphate as a known whitening agent (a positive control) and that obtained when any candidate sample was not used (control), according to the following evaluation criteria.
# The evaluation criteria for the cell-whitening degree are as follows:
# Regarding the results listed in Table 1, the whitening degree observed when adding 450 ppm of vitamin C-magnesium phosphate is selected as a standard.
structure (smiles),measurement,setting,value
C[C@H]1[C@H](C)CC[C@]2(C(=O)O)CC[C@]3(C)C(=CC[C@@H]4[C@@]5(C)CC[C@H](O)C(C)(C)[C@@H]5CC[C@]43C)[C@H]12 [Ursolic acid],Melanin production-inhibitory effect (cell-whitening degree),2 ppm,±
same,Melanin production-inhibitory effect (cell-whitening degree),4 ppm,+
same,Melanin production-inhibitory effect (cell-whitening degree),6 ppm,++
same,Melanin production-inhibitory effect (cell-whitening degree),8 ppm,++
same,Melanin production-inhibitory effect (cell-whitening degree),10 ppm,++
same,melanogenesis-inhibitory function relative to that observed when 450 ppm of vitamin C-magnesium phosphate (standard) is added,,about 110 times
"O=c1cc(CO)occ1O [Kojic Acid, reference compound]",Melanin production-inhibitory effect (cell-whitening degree),10 ppm,−
same,Melanin production-inhibitory effect (cell-whitening degree),15 ppm,−
same,Melanin production-inhibitory effect (cell-whitening degree),25 ppm,−
same,Melanin production-inhibitory effect (cell-whitening degree),50 ppm,±
same,Melanin production-inhibitory effect (cell-whitening degree),100 ppm,±
same,Melanin production-inhibitory effect (cell-whitening degree),200 ppm,+
same,Melanin production-inhibitory effect (cell-whitening degree),300 ppm,++
same,Melanin production-inhibitory effect (cell-whitening degree),450 ppm,++
CC1(C)CC[C@]2(CO)CC[C@]3(C)C(=CC[C@@H]4[C@@]5(C)CC[C@H](O)C(C)(C)[C@@H]5CC[C@]43C)[C@@H]2C1 [Erythrodiol],Melanin production-inhibitory effect (cell-whitening degree),2 ppm,±
same,Melanin production-inhibitory effect (cell-whitening degree),6 ppm,±
same,Melanin production-inhibitory effect (cell-whitening degree),10 ppm,±
same,Melanin production-inhibitory effect (cell-whitening degree),25 ppm,+
same,Melanin production-inhibitory effect (cell-whitening degree),50 ppm,+
same,melanogenesis-inhibitory function relative to that observed when 450 ppm of vitamin C-magnesium phosphate (standard) is added,,about 20 times
"CC(=O)OC[C@]12CC[C@@H](C)[C@H](C)[C@H]1C1=CC[C@@H]3[C@@]4(C)CC[C@H](OC(C)=O)C(C)(C)[C@@H]4CC[C@@]3(C)[C@]1(C)CC2 [Compound of Synthesis 7, 3,28-O-Di-Acetyl-Uvaol]",Melanin production-inhibitory effect (cell-whitening degree),2 ppm,−
same,Melanin production-inhibitory effect (cell-whitening degree),6 ppm,−
same,Melanin production-inhibitory effect (cell-whitening degree),10 ppm,±
same,Melanin production-inhibitory effect (cell-whitening degree),25 ppm,+
same,Melanin production-inhibitory effect (cell-whitening degree),50 ppm,+
same,melanogenesis-inhibitory function relative to that observed when 450 ppm of vitamin C-magnesium phosphate (standard) is added,,about 20 times
"CC(=O)OCC12CCC(C)(C)CC1C1=CCC3C4(C)CCC(OC(C)=O)C(C)(C)C4CCC3(C)C1(C)CC2 (stereo not drawn) [Compound of Synthesis 5, 3,28-O-Di-Acetyl-Erythrodiol]",Melanin production-inhibitory effect (cell-whitening degree),2 ppm,−
same,Melanin production-inhibitory effect (cell-whitening degree),6 ppm,±
same,Melanin production-inhibitory effect (cell-whitening degree),10 ppm,±
same,Melanin production-inhibitory effect (cell-whitening degree),25 ppm,+
same,Melanin production-inhibitory effect (cell-whitening degree),50 ppm,+
same,melanogenesis-inhibitory function relative to that observed when 450 ppm of vitamin C-magnesium phosphate (standard) is added,,about 20 times
C=C(C)[C@@H]1CC[C@]2(CO)CC[C@]3(C)[C@H](CC[C@@H]4[C@@]5(C)CC[C@H](O)C(C)(C)[C@@H]5CC[C@]43C)[C@@H]12 [Betulin],Melanin production-inhibitory effect (cell-whitening degree),2 ppm,−
same,Melanin production-inhibitory effect (cell-whitening degree),6 ppm,±
same,Melanin production-inhibitory effect (cell-whitening degree),10 ppm,±
same,Melanin production-inhibitory effect (cell-whitening degree),25 ppm,+
same,Melanin production-inhibitory effect (cell-whitening degree),50 ppm,+
same,melanogenesis-inhibitory function relative to that observed when 450 ppm of vitamin C-magnesium phosphate (standard) is added,,about 20 times
"CCOC(=O)[C@]12CCC(C)(C)C[C@H]1C1=CC[C@@H]3[C@@]4(C)C[C@@H](O)[C@H](O)C(C)(C)[C@@H]4CC[C@@]3(C)[C@]1(C)CC2 [Compound of Synthesis 1, Ethyl Ester of Maslinic Acid]",Melanin production-inhibitory effect (cell-whitening degree),2 ppm,±
same,Melanin production-inhibitory effect (cell-whitening degree),4 ppm,+
same,Melanin production-inhibitory effect (cell-whitening degree),6 ppm,++
same,Melanin production-inhibitory effect (cell-whitening degree),8 ppm,++
same,Melanin production-inhibitory effect (cell-whitening degree),10 ppm,++
same,melanogenesis-inhibitory function relative to that observed when 450 ppm of vitamin C-magnesium phosphate (standard) is added,,about 110 times
C=C(C)[C@@H]1CC[C@]2(C(=O)O)CC[C@]3(C)[C@H](CC[C@@H]4[C@@]5(C)CC[C@H](O)C(C)(C)[C@@H]5CC[C@]43C)[C@@H]12 [Betulinic acid],Melanin production-inhibitory effect (cell-whitening degree),2 ppm,−
same,Melanin production-inhibitory effect (cell-whitening degree),6 ppm,±
same,Melanin production-inhibitory effect (cell-whitening degree),10 ppm,+
same,Melanin production-inhibitory effect (cell-whitening degree),25 ppm,+
same,Melanin production-inhibitory effect (cell-whitening degree),50 ppm,+
same,melanogenesis-inhibitory function relative to that observed when 450 ppm of vitamin C-magnesium phosphate (standard) is added,,about 40 times
"CCCCCCCCCCCCCCCCCC(=O)O[C@@H]1C[C@]2(C)[C@H]3CC=C4[C@@H]5CC(C)(C)CC[C@]5(C(=O)OCC)CC[C@@]4(C)[C@]3(C)CC[C@H]2C(C)(C)[C@H]1OC(=O)CCCCCCCCCCCCCCCCC [Compound of Synthesis 4, Ethyl 2,3-O-Di-Stearoyl-Maslinate]",Melanin production-inhibitory effect (cell-whitening degree),2 ppm,±
same,Melanin production-inhibitory effect (cell-whitening degree),4 ppm,±
same,Melanin production-inhibitory effect (cell-whitening degree),6 ppm,+
same,Melanin production-inhibitory effect (cell-whitening degree),8 ppm,++
same,Melanin production-inhibitory effect (cell-whitening degree),10 ppm,++
same,Melanin production-inhibitory effect (cell-whitening degree),15 ppm,++
same,melanogenesis-inhibitory function relative to that observed when 450 ppm of vitamin C-magnesium phosphate (standard) is added,,about 75 times
"CC(=O)O[C@@H]1C[C@]2(C)[C@H]3CC=C4[C@@H]5CC(C)(C)CC[C@]5(C(=O)O)CC[C@@]4(C)[C@]3(C)CC[C@H]2C(C)(C)[C@H]1OC(C)=O [Compound of Synthesis 2, 2,3-O-Di-Acetyl-Maslinic Acid]",Melanin production-inhibitory effect (cell-whitening degree),2 ppm,±
same,Melanin production-inhibitory effect (cell-whitening degree),4 ppm,±
same,Melanin production-inhibitory effect (cell-whitening degree),6 ppm,+
same,Melanin production-inhibitory effect (cell-whitening degree),8 ppm,++
same,Melanin production-inhibitory effect (cell-whitening degree),10 ppm,++
same,Melanin production-inhibitory effect (cell-whitening degree),15 ppm,++
same,melanogenesis-inhibitory function relative to that observed when 450 ppm of vitamin C-magnesium phosphate (standard) is added,,about 75 times
"CC1(C)CC[C@]2(C(=O)O)CC[C@]3(C)C(=CC[C@@H]4[C@@]5(C)C[C@@H](O)[C@H](O)C(C)(C)[C@@H]5CC[C@]43C)[C@@H]2C1 [Purified maslinic acid 2, maslinic acid]",Melanin production-inhibitory effect (cell-whitening degree),2 ppm,±
same,Melanin production-inhibitory effect (cell-whitening degree),4 ppm,+
same,Melanin production-inhibitory effect (cell-whitening degree),6 ppm,++
same,Melanin production-inhibitory effect (cell-whitening degree),8 ppm,++
same,Melanin production-inhibitory effect (cell-whitening degree),10 ppm,++
C[C@H]1[C@H](C)CC[C@]2(CO)CC[C@]3(C)C(=CC[C@@H]4[C@@]5(C)CC[C@H](O)C(C)(C)[C@@H]5CC[C@]43C)[C@H]12 [Uvaol],Melanin production-inhibitory effect (cell-whitening degree),2 ppm,−
same,Melanin production-inhibitory effect (cell-whitening degree),6 ppm,−
same,Melanin production-inhibitory effect (cell-whitening degree),10 ppm,+
same,Melanin production-inhibitory effect (cell-whitening degree),25 ppm,+
same,Melanin production-inhibitory effect (cell-whitening degree),50 ppm,+
same,melanogenesis-inhibitory function relative to that observed when 450 ppm of vitamin C-magnesium phosphate (standard) is added,,about 40 times
"C=C(C)[C@@H]1CC[C@]2(C(=O)OCC)CC[C@]3(C)[C@H](CC[C@@H]4[C@@]5(C)CC[C@H](O)C(C)(C)[C@@H]5CC[C@]43C)[C@@H]12 [Compound of Synthesis 8, Ethyl Betulinate]",Melanin production-inhibitory effect (cell-whitening degree),2 ppm,−
same,Melanin production-inhibitory effect (cell-whitening degree),6 ppm,±
same,Melanin production-inhibitory effect (cell-whitening degree),10 ppm,±
same,Melanin production-inhibitory effect (cell-whitening degree),25 ppm,+
same,Melanin production-inhibitory effect (cell-whitening degree),50 ppm,+
same,melanogenesis-inhibitory function relative to that observed when 450 ppm of vitamin C-magnesium phosphate (standard) is added,,about 20 times
"C=C(C)[C@@H]1CC[C@]2(COC(C)=O)CC[C@]3(C)[C@H](CC[C@@H]4[C@@]5(C)CC[C@H](OC(C)=O)C(C)(C)[C@@H]5CC[C@]43C)[C@@H]12 [Compound of Synthesis 9, 3,28-O-Di-Acetyl-Betulin]",Melanin production-inhibitory effect (cell-whitening degree),2 ppm,−
same,Melanin production-inhibitory effect (cell-whitening degree),6 ppm,−
same,Melanin production-inhibitory effect (cell-whitening degree),10 ppm,±
same,Melanin production-inhibitory effect (cell-whitening degree),25 ppm,±
same,Melanin production-inhibitory effect (cell-whitening degree),50 ppm,+
same,melanogenesis-inhibitory function relative to that observed when 450 ppm of vitamin C-magnesium phosphate (standard) is added,,about 10 times
